# Target: T1, hCRTH2 (Homo sapiens, UniProt Q9Y5Y4)
# T1 construct: expressed in transfected cells; host or cells: HEK (human embryonic kidney) cells expressing hCRTH2; membrane preparation
# T1 sequence (Q9Y5Y4 1-395): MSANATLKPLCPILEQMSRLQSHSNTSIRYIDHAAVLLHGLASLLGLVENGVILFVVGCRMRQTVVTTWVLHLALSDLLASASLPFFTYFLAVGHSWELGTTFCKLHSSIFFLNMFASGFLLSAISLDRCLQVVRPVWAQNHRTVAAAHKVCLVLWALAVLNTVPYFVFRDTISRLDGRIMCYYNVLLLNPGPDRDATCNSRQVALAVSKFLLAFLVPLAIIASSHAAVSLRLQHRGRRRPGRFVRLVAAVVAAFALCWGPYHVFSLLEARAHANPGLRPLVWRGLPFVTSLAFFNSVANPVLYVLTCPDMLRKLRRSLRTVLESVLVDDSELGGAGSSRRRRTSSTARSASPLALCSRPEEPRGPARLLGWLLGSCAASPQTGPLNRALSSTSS
# Experiment: Radioligand binding assay ([3H]PGD2 competition, HEK-hCRTH2 membranes)
# Conditions: [3H]PGD2 binding, rated A-E (Table A)
# Method: Biological Assays Radioligand Binding Assay.
# Radioligand binding assays were performed at room temperature in 50 mM Tris-HCl pH 7.4, 1 mM EDTA containing 2 mM MnCl2 and 3.0 nM [^3H]PGD2 (New England Nuclear, Boston, Mass.) (171 Ci mmol^−1), in a final volume of 0.2 mL. Competing ligands were diluted in dimethylsulfoxide (Me2SO) that was kept constant at 1% (v/v) of the final incubation volume. The reaction was initiated by the addition of 8-20 μg of membrane protein prepared from a human embryonic kidney (HEK)-hCRTH2 cell line. Total and non-specific binding were determined in the absence and the presence of 10 μM PGD2, respectively. […] The reaction was routinely conducted for 60 min at room temperature and terminated by rapid filtration through prewetted (0.3% polyethyleneimine) 96-well printed Filtermate™ (Wallac) using a Tomtec® harvester (Hamden, Conn.). After washing with cold buffer, the filter was dried for 2 minutes in microwave, and Meltilex Scintillator sheet (Wallac) was melted on for 2 min. The radioactivity was measured with Betaplate model 1205 (Wallac).
row,Ki,SMILES
1,2.1 to 20 nM,"N#Cc1ccc(CNC(=O)c2ccc3nc(-c4ccccc4)c(CCCCC(=O)O)nc3c2)cc1 [15BB, 5-{7-[(4-cyanobenzyl)carbamoyl]-3-phenylquinoxalin-2-yl}pentanoic acid]"
2,0.1 to 2 nM,"O=C(O)CCCCc1nc2cc(C(=O)N3CC(c4ccc(Cl)cc4)C3)ccc2nc1-c1ccccc1 [compound 252, 7-[[3-(4-chlorophenyl)-1-azetidinyl]carbonyl]-3-phenyl-2-quinoxalinepentanoic acid]"
3,2.1 to 20 nM,C[C@@H](NC(=O)c1ccc2nc(-c3ccc(Cl)cc3)c(CC3CC(C(=O)O)C3)nc2c1)c1ccc(F)cc1 (some centres unmarked) [30E]
4,20.1 to 200 nM,O=C(O)CCCCc1nc2cc(NC(=O)Cc3ccc(Cl)c(Cl)c3)ccc2nc1-c1ccccc1 [compound 11]
5,20.1 to 200 nM,"COC(=O)c1cnc2nc(-c3ccccc3)c(CCCCC(=O)O)nc2c1 [compound 13, 5-[7-(Methoxycarbonyl)-3-phenylpyrido[2,3-b]pyrazin-2-yl]pentanoic Acid]"
6,0.1 to 2 nM,"O=C(O)CCCCc1nc2cc(C(=O)NCc3cc(Cl)ccn3)ccc2nc1-c1ccccc1 [15BT, 5-(7-{[(4-chloropyridin-2-yl)methyl]carbamoyl}-3-phenylquinoxalin-2-yl)pentanoic acid]"
7,2.1 to 20 nM,"O=C(O)CCCOc1nc2cc(C(=O)NCc3cccnc3)ccc2nc1-c1ccccc1 [compound 10, 4-({3-Phenyl-7-[(pyridin-3-ylmethyl)carbamoyl]quinoxalin-2-yl}oxy)butanoic Acid]"
8,0.1 to 2 nM,"C[C@@H](NC(=O)c1ccc2nc(-c3ccc(F)cc3)c(CCCCC(=O)O)nc2c1)c1ccc(Cl)cc1 [compound 130, 7-[[[1(R)-(4-chlorophenyl)ethyl]amino]carbonyl]-3-(4-fluorophenyl)-2-quinoxalinepentanoic acid]"
9,0.1 to 2 nM,"O=C(O)CCCCc1nc2cc(C(=O)N3CCN(c4ccccc4F)CC3)ccc2nc1-c1ccc(Cl)cc1 [compound 190, 3-(4-chlorophenyl)-7-[[4-(2-fluorophenyl)-1-piperazinyl]carbonyl]-2-quinoxalinepentanoic acid]"
10,201 to 700 nM,"O=C(O)CCCCc1nc2cc(NC(=O)c3ccc(Cl)cc3)ccc2nc1-c1ccccc1 [11E, 5-(7-{[(4-chlorophenyl)-carbonyl]amino}-3-phenyl-quinoxalin-2-yl)pentanoic acid]"
11,0.1 to 2 nM,"O=C(O)CCCCc1nc2cc(C(=O)N3CCN(c4ccc(Cl)cc4)CC3)ccc2nc1-c1ccc(Cl)cc1 [compound 191, 3-(4-chlorophenyl)-7-[[4-(4-chlorophenyl)-1-piperazinyl]carbonyl]-2-quinoxalinepentanoic acid]"
12,2.1 to 20 nM,"O=C(O)CCCCc1nc2cc(C(=O)N3CC=C(c4ccc(Cl)cc4)CC3)ccc2nc1-c1ccc(F)cc1 [compound 136, 7-[[4-(4-chlorophenyl)-3,6-dihydro-1(2H)-pyridinyl]carbonyl]-3-(4-fluorophenyl)-2-quinoxalinepentanoic acid]"
13,2.1 to 20 nM,"O=C(O)CCCCc1nc2cc(C(=O)N3CCC[C@H](c4ccccc4)C3)ccc2nc1-c1ccccc1 [compound 143, 3-phenyl-7-[(3(R)-phenyl-1-piperidinyl)carbonyl]-2-quinooxalinepentanoic acid]"
14,0.1 to 2 nM,"O=C(O)CCCCc1nc2cc(C(=O)N3CC[C@@H](c4ccccc4)C3)ccc2nc1-c1ccccc1 [compound 140, 3-phenyl-7-[(3(S)-phenyl-1-pyrrolidinyl)carbonyl]-2-quinoxalinepentanoic acid]"
15,2.1 to 20 nM,"O=C(O)CCCCc1nc2cc(C(=O)NCc3cccc(Cl)c3)ccc2nc1-c1ccc(F)cc1 [compound 101, 7-[[[(3-chlorophenyl)methyl]amino]carbonyl]-3-(4-fluorophenyl)-2-quinoxalinepentanoic acid]"
16,0.1 to 2 nM,"O=C(O)CCCCc1nc2cc(C(=O)N3CC(c4ccccc4)C3)ccc2nc1-c1ccc(C(F)(F)F)cc1 [compound 154, 7-[(3-phenyl-1-azetidinyl)carbonyl]-3-[4-(trifluoromethyl)phenyl]-2-quinoxalinepentanoic acid]"

# Same assay, conditions: [3H]PGD2 competition, Table B
row,Ki,SMILES
1,0.1 to 2 nM,"N#CC1(c2ccccc2)CCN(C(=O)c2ccc3nc(-c4ccc(Cl)cc4)c(CCCCC(=O)O)nc3c2)C1 (centres unmarked) [compound 604, 5-(3-(4--chlorophenyl)-7-(3-cyano-3-phenyl-pyrrolidine-1-carbonyl)quinoxalin-2-yl)pentanoic acid]"
2,2.1 to 20 nM,"O=C(O)CCCCc1nc2cc(C(=O)N[C@H]3CCOc4cc(Cl)ccc43)ccc2nc1-c1ccc(Cl)cc1 [compound 335, (S)-5-(7-((7-chlorochroman-4-yl)carbamoyl)-3-(4-chlorophenyl)quinoxalin-2-yl)pentanoic acid]"
3,2.1 to 20 nM,"O=C(O)CCCCc1nc2cc(C(=O)N3C[C@@H]4C[C@H]3CN4c3cccc(F)c3)ccc2nc1-c1ccc(Cl)cc1 [compound 677, 5-(3-(4-chlorophenyl)-7-((1S,4S)-5-(3-fluorophenyl)-2,5-diazabicyclo[2.2.1]heptane-2-carbonyl)quinoxalin-2-yl)pentanoic acid]"
4,2.1 to 20 nM,"Cn1cnc(C2CCN(C(=O)c3ccc4nc(-c5ccc(Cl)cc5)c(CCCCC(=O)O)nc4c3)CC2)c1 [compound 346, 5-(3-(4-chlorophenyl)-7-(4-(1-methyl-1H-imidazol-4-yl)piperidine-1-carbonyl)quinoxalin-2-yl)pentanoic acid]"
5,2.1 to 20 nM,"O=C(O)CCCCc1nc2cc(C(=O)N3CC(c4ccc(F)cc4)C3)ccc2nc1-c1ccc(Cl)cc1 [compound 606, 5-(3-(4-chlorophenyl)-7-(3-(4-fluorophenyl)azetidine-1-carbonyl)quinoxalin-2-yl)pentanoic acid]"
6,0.1 to 2 nM,"O=C(O)CCCCc1nc2cc(C(=O)N[C@H]3CCOc4cc(F)ccc43)ccc2nc1-c1ccc(Cl)cc1 [compound 612, (S)-5-(3-(4-chlorophenyl)-7-((7-fluorochroman-4-yl)carbamoyl)quinoxalin-2-yl)pentanoic acid]"
7,2.1 to 20 nM,"O=C(O)C1CCC(Cc2nc3cc(C(=O)N4CC(c5ccc(F)c(F)c5)C4)ccc3nc2-c2ccc(Cl)cc2)C1 (centres unmarked) [compound 398, 3-((3-(4-chlorophenyl)-7-(3-(3,4-difluorophenyl)azetidine-1-carbonyl)quinoxalin-2-yl)methyl)cyclopentane-carboxylic acid]"
8,2.1 to 20 nM,"C[C@@H](CCc1nc2cc(C(=O)N[C@@H]3CCCc4ccccc43)ccc2nc1-c1ccccc1)CC(=O)O [compound 293, (S)-3-methyl-S-(3-phenyl-7-(((R)-1,2,3,4-tetrahydronaphthalen-1-yl)carbamoyl)quinoxalin-2-yl)pentanoic acid]"
9,0.1 to 2 nM,"O=C(O)CCCCc1nc2cc(C(=O)N3CCC(c4ccc(F)cc4)CC3)ccc2nc1-c1ccc(Cl)cc1 [compound 414, 5-(3-(4-chlorophenyl)-7-(4-(4-fluorophenyl)piperidine-1-carbonyl)quinoxalin-2-yl)pentanoic acid]"
10,20.1 to 200 nM,"O=C(O)CCCCc1nc2cc(C(=O)N[C@H](CO)c3ccc(F)cc3)ccc2nc1-c1ccccc1 [compound 688, (S)-5-(7-((1-(4-fluorophenyl)-2-hydroxyethyl)carbamoyl)-3-phenylquinoxalin-2-yl)pentanoic acid]"
11,2.1 to 20 nM,"O=C(O)CCCCc1nc2cc(C(=O)N3CCN(c4ccc(Cl)cn4)CC3)ccc2nc1-c1ccc(Cl)cc1 [compound 669, 5-(3-(4-chlorophenyl)-7-(4-(5-chloropyridin-2-yl)piperazine-1-carbonyl)quinoxalin-2-yl)pentanoic acid]"
12,0.1 to 2 nM,"O=C(O)CCCCc1nc2cc(C(=O)N3CCC4(CC3)OCc3ccccc34)ccc2nc1-c1ccc(Cl)cc1 [compound 633, 5-(3-(4-chlorophenyl)-7-(3H-spiro[isobenzofuran-1,4′-piperidin]-1′-ylcarbonyl)quinoxalin-2-yl)pentanoic acid]"
13,2.1 to 20 nM,"O=C(O)CCCCc1nc2cc(C(=O)N[C@@H]3CC(=O)Nc4ccc(F)cc43)ccc2nc1-c1ccccc1 [compound 713, (R)-5-(7-((6-fluoro-2-oxo-1,2,3,4-tetrahydroquinolin-4-yl)carbamoyl)-3-phenylquinoxalin-2-yl)pentanoic acid]"
14,20.1 to 200 nM,"O=C(O)CCCCc1nc2cc(C(=O)N3CCN(c4nnc(C5CC5)o4)CC3)ccc2nc1-c1ccc(Cl)cc1 [compound 685, 5-(3-(4-chlorophenyl)-7-(4-(5-cyclopropyl-1,3,4-oxadiazo1-2-yl)piperazine-1-carbonyl)quinoxalin-2-yl)pentanoic acid]"
15,20.1 to 200 nM,"CC(CCCc1nc2cc(C(=O)N[C@H](C)c3ccc(F)cc3)ccc2nc1-c1ccc(Cl)cc1)C(=O)O (stereo partly drawn) [compound 409, 5-(3-(4-chlorophenyl)-7-(((R)-1-(4-fluorophenyl)ethyl)carbamoyl)quinoxalin-2-yl)-2-methylpentanoic acid]"

row,SMILES,Ki
1,"O=C(O)CCCCc1nc2cc(C(=O)N3CCN(C(=O)OCc4ccccc4)CC3)ccc2nc1-c1ccc(Cl)cc1 [compound 590, 5-(7-(4-((benzyloxy)carbonyl)piperazine-1-carbonyl)-3-(4-chlorophenyl)quinoxalin-2-yl)pentanoic acid]",2.1 to 20 nM
